{"source": "patent US6160008A", "about": "“Pharmaceutical compositions comprising S-alkylisothiouronium derivatives” (priority 1996, dated 2000)", "key": {"[1]": {"tested_on": "arterial blood pressure", "assay": "Influence of single intravenous injection on arterial blood pressure, heart rate and respiratory rate in anesthetized cats (Table 1, FIGS. 1-10)", "assay_type": "in vivo", "settings": "5 mg/kg i.v.; for Hypertensive activity (increase of SAP): given as \"> SAP by\"", "description": "Experiments were performed on 52 anesthetized (intraperitoneally with 45 mg/kg of sodium pentobarbital) cats of both genders with body mass of 2.8-4.2 kg. Arterial pressure was measured by a mercury pressure gauge; measurements were also performed by ECG. Simultaneously, the respiratory frequency was registered. The hypertensive effect was determined as percent increase relative to the initial level of systolic arterial pressure (SAP). The duration of observation was 1-3 hours; the heart rate (HR) was calculated on the basis of ECG."}, "[2]": {"tested_on": "α1-adrenoreceptors", "settings": "cited from earlier work"}, "[3]": {"tested_on": "acute arterial hypotension, caused by prazosin", "assay": "Acute arterial hypotension caused by prazosin (Table 3)", "assay_type": "in vivo, cats", "settings": "prazosin alone 1 mg/kg i.v.", "description": "It was of interest to study the influence of S-ethylisothiouronium diethylphosphate the in case of hypotension caused by the injection of a known α1-adreno blocker, namely prazosin. Prazosin was injected singly intravenously at a dose of 1 mg/kg."}, "[4]": {"tested_on": "mice exposed to an oxygen pressure of 3 atm", "assay": "Survival under oxygen pressure of 3 atm, mice (Table 15)", "assay_type": "in vivo, F1 (CBAx57B1)", "settings": "mice, 3 atm, 5 hours", "description": "Animals were exposed to oxygen under increased pressure in a hyperbaric chamber <<Mana-2≤≤ for treatment of infants above 1 year, which was adjusted for the experiments on animals. The hyperbaric chamber design permitted to create excessive pressure up to 3 atm and to observe animal behavior from outside.\nThe experiments were performed on males of F1 (CBAx57B1) mice line and on males of Wistar rat line. Animals were placed in the hyperbaric chamber in plastic boxes and the atmospheric air was replaced by oxygen. The period of compression-decompression was 10 minutes. The exposure of the animals to an oxygen pressure of 3 atm during a period of 2 hours caused only some increase in their motion activity. Further staying of rats and mice in those conditions led to a decrease in the motion activity, to asphyxia with short periods of excitement and cramps. The death of some animals was registered after 2.5-3 hours, 50% after 4 hours, and 75% of mice and 100% of rats were dead after 5 hours.\nWhen the influence of Difetur and Etyron was studied, the animals were exposed to an oxygen pressure of 3 atm during 5 hours if not otherwise specified. Preparations were injected 5-10 minutes before the session."}, "[5]": {"tested_on": "increased oxygen pressure", "settings": "cited from earlier work"}, "[6]": {"tested_on": "acute arterial hypotension, caused by the hexamethonium administration", "assay": "Acute arterial hypotension caused by hexamethonium (Table 5)", "assay_type": "in vivo, cats", "description": "The influence of S-ethylisothiouronium diethylphosphate on the background of arterial hypotension caused by a known ganglion blocker-hexamethonium has been studied in cats. Hexamethonium was injected intra- venously at a dose of 10 mg/kg. Vagus and schiatic nerve stimulation was carried out by electrical pulsator with the above-threshold rectangular pulse current having a duration of 1 msec, irritation time of 10 sec, and frequency of 20 pulses/sec (peripheral section of the vagus nerve), and frequency of 300 pulses/sec (central end of the schiatic nerve)."}, "[7]": {"settings": "listed as S-methylisothiuronium dimethylphosphate"}, "[8]": {"settings": "listed as S-isopropylisothiuronium isopropylphosphite"}, "[9]": {"settings": "listed as S-ethylisothiuronium methylphosphate"}, "[10]": {"settings": "listed as S-isopropylisothiuronium metaphosphate"}, "[11]": {"settings": "hexamethonium alone 10 mg/kg i.v., 2nd min"}, "[12]": {"settings": "listed as S-isobutylisothiuronium isobutylphosphate"}}, "note": "“Also recorded” adds a separate entry of the source.", "data": [{"compound": "CSC(=N)N", "note": "[S-methylisothiouronium dimethylphosphate]", "values": [{"measurement": "Duration of effect", "setting": "[1]", "result": 1.5, "unit": "h"}, {"measurement": "Hypertensive activity, % (increase relative to the initial level of SAP)", "setting": "[1]", "result": "~30", "unit": "%"}, {"measurement": "Hypertensive activity (increase of SAP)", "setting": "[1]; [7]", "result": 27.5, "unit": "mm Hg"}, {"measurement": "Duration of effect", "setting": "[1]; [7]", "result": 1.5, "unit": "h"}, {"measurement": "Hypertensive activity, % (increase relative to the initial level of SAP)", "setting": "[1]; [7]", "result": 20.8, "unit": "%"}]}, {"compound": "CNCC(O)c1cccc(O)c1.Cl", "note": "(centres unmarked) [Mezaton, 1-(m-hydroxyphenyl)-2-methylaminoethanol hydrochloride]", "values": [{"measurement": "Pharmacological action in words", "setting": "[2]; in vivo, hydrochloride", "result": "selectively stimulates α1-adrenoreceptors; also recorded: practically does not have cardiostimulating effect"}, {"measurement": "Duration of anti-hypotensive effect", "setting": "[2]; single intravascular injection", "result": "approximately 20 minutes"}]}, {"compound": "CC(C)SC(=N)N", "note": "[S-isopropylisothiouronium isopropylphosphite]", "values": [{"measurement": "Duration of effect", "setting": "[1]", "result": "at least 2 hour"}, {"measurement": "Hypertensive activity, % (increase relative to the initial level of SAP)", "setting": "[1]", "result": "~30", "unit": "%"}, {"measurement": "Hypertensive effect in words", "setting": "[1]", "result": "one of the most active substances"}, {"measurement": "Influence on HR", "setting": "[1]", "result": "Transient bradycardia"}, {"measurement": "RR (influence on respiratory rate)", "setting": "[1]", "result": "does not influence RR"}, {"measurement": "Time to achieve maximum effect", "setting": "[1]", "result": "second minute"}, {"measurement": "Hypertensive activity (increase of SAP)", "setting": "[1]; [8]", "result": 40, "unit": "mm Hg"}, {"measurement": "Duration of effect", "setting": "[1]; [8]", "result": 2, "unit": "h"}, {"measurement": "Hypertensive activity, % (increase relative to the initial level of SAP)", "setting": "[1]; [8]", "result": 28.8, "unit": "%"}, {"measurement": "Influence on HR", "setting": "[1]; [8]", "result": "Bradycardia"}, {"measurement": "RR (influence on respiratory rate)", "setting": "[1]; [8]", "result": "No influence"}, {"measurement": "Time to achieve maximum effect", "setting": "[1]; [8]", "result": 2, "unit": "min"}]}, {"compound": "CCSC(=N)N", "note": "[S-ethylisothiouronium metaphosphate]", "values": [{"measurement": "Duration of effect", "setting": "[1]", "result": 1.5, "unit": "h"}, {"measurement": "Hypertensive activity, % (increase relative to the initial level of SAP)", "setting": "[1]", "result": 15, "unit": "%"}, {"measurement": "RR (influence on respiratory rate)", "setting": "[1]", "result": "does not influence RR"}, {"measurement": "Time to achieve maximum effect", "setting": "[1]", "result": 2, "unit": "min"}, {"measurement": "Hypertensive activity (increase of SAP)", "setting": "[1]", "result": 25, "unit": "mm Hg"}, {"measurement": "Hypertensive activity (increase of SAP)", "setting": "[1]; [9]", "result": 25, "unit": "mm Hg"}, {"measurement": "Duration of effect", "setting": "[1]; [9]", "result": "up to 1 hour"}, {"measurement": "Hypertensive activity, % (increase relative to the initial level of SAP)", "setting": "[1]; [9]", "result": 14.8, "unit": "%"}, {"measurement": "Influence on HR", "setting": "[1]; [9]", "result": "Bradycardia"}, {"measurement": "RR (influence on respiratory rate)", "setting": "[1]; [9]", "result": "No influence"}]}, {"compound": "CC(C)SC(=N)N", "note": "[S-isopropylisothiouronium metaphosphate]", "values": [{"measurement": "Duration of effect", "setting": "[1]", "result": "≥ 2", "unit": "h"}, {"measurement": "Hypertensive effect in words", "setting": "[1]", "result": "slowly increases SAP"}, {"measurement": "RR (influence on respiratory rate)", "setting": "[1]", "result": "does not influence RR"}, {"measurement": "Time to achieve maximum effect", "setting": "[1]", "result": 15, "unit": "min"}, {"measurement": "Hypertensive activity (increase of SAP)", "setting": "[1]; [10]", "result": 27, "unit": "mm Hg"}, {"measurement": "Duration of effect", "setting": "[1]; [10]", "result": 2, "unit": "h"}, {"measurement": "Hypertensive activity, % (increase relative to the initial level of SAP)", "setting": "[1]; [10]", "result": 20.3, "unit": "%"}, {"measurement": "Influence on HR", "setting": "[1]; [10]", "result": "Bradycardia"}, {"measurement": "RR (influence on respiratory rate)", "setting": "[1]; [10]", "result": "Increases"}, {"measurement": "Time to achieve maximum effect", "setting": "[1]; [10]", "result": 15, "unit": "min"}]}, {"compound": "COc1cc2nc(N3CCN(C(=O)c4ccco4)CC3)nc(N)c2cc1OC", "note": "[prazosin, reference compound]", "values": [{"measurement": "AP after prazosin", "setting": "[3]; 5th min", "result": "106.3 ± 2.4", "unit": "mm Hg"}, {"measurement": "HF after prazosin", "setting": "[3]; 5th min", "result": "156.8 ± 9.0", "unit": "per min."}, {"measurement": "Respiratory contraction frequency after prazosin", "setting": "[3]; 5th min", "result": "13.6 ± 2.9", "unit": "min⁻¹"}, {"measurement": "AP decrease", "setting": "[3]; 5th minute", "result": 51, "unit": "mm Hg"}]}, {"compound": "Br.CCSC(=N)N", "note": "[Etyron, S-ethylisothiouronium bromide, reference compound]", "values": [{"measurement": "Number of survived animals", "setting": "[4]; 10 mg/kg", "result": 70, "unit": "%"}, {"measurement": "Number of survived animals", "setting": "[4]; 20 mg/kg", "result": 50, "unit": "%"}, {"measurement": "Protective activity in words", "setting": "[5]", "result": "protective activity under increased oxygen pressure"}]}, {"compound": "C[N+](C)(C)CCCCCC[N+](C)(C)C", "note": "[hexamethonium, reference compound]", "values": [{"measurement": "AP after hexonium injection", "setting": "[6]; [11]", "result": "91.0 ± 10.0", "unit": "mm Hg"}, {"measurement": "HF after hexonium injection", "setting": "[6]; [11]", "result": "137.6 ± 13.4", "unit": "per min."}, {"measurement": "AP decrease", "setting": "[6]; hexamethonium alone, 2 minutes", "result": 46, "unit": "%"}]}, {"compound": "CCCCSC(=N)N", "note": "[S-butylisothiouronium dibutylphosphate, S-butylisothiouronium di-butylphosphate]", "values": [{"measurement": "Duration of effect", "setting": "[1]", "result": 1, "unit": "h"}, {"measurement": "Hypertensive activity, % (increase relative to the initial level of SAP)", "setting": "[1]", "result": 5.6, "unit": "%"}, {"measurement": "Hypertensive effect in words", "setting": "[1]", "result": "slightly increases arterial blood pressure"}, {"measurement": "RR (influence on respiratory rate)", "setting": "[1]", "result": "No influence"}, {"measurement": "Time to achieve maximum effect", "setting": "[1]", "result": 30, "unit": "min"}, {"measurement": "Hypertensive activity (increase of SAP)", "setting": "[1]", "result": 7, "unit": "mm Hg"}, {"measurement": "Duration of effect", "setting": "[1]; listed as S-butylisothiuronium dibutylphosphate", "result": "up to 1 hour"}]}, {"compound": "CC(C)CSC(=N)N", "note": "[S-isobutylisothiouronium isobutylphosphite]", "values": [{"measurement": "Duration of effect", "setting": "[1]", "result": "about 2 hour"}, {"measurement": "Hypertensive activity, % (increase relative to the initial level of SAP)", "setting": "[1]", "result": 14.8, "unit": "%"}, {"measurement": "Hypertensive effect in words", "setting": "[1]", "result": "moderate hypertensive effect"}, {"measurement": "Influence on HR", "setting": "[1]", "result": "increasing HR"}, {"measurement": "RR (influence on respiratory rate)", "setting": "[1]", "result": "increasing HR and RR"}, {"measurement": "Time to achieve maximum effect", "setting": "[1]", "result": 2, "unit": "min"}, {"measurement": "Hypertensive activity (increase of SAP)", "setting": "[1]", "result": 22.6, "unit": "mm Hg"}, {"measurement": "Duration of effect", "setting": "[1]; [12]", "result": 2, "unit": "h"}, {"measurement": "RR (influence on respiratory rate)", "setting": "[1]; [12]", "result": "Increases"}]}]}
